This is an account of results in ChEMBL document CHEMBL1909046, “DrugMatrix in vitro pharmacology data”.

Vascular endothelial growth factor receptor 1, sequence (P17948 whole entry): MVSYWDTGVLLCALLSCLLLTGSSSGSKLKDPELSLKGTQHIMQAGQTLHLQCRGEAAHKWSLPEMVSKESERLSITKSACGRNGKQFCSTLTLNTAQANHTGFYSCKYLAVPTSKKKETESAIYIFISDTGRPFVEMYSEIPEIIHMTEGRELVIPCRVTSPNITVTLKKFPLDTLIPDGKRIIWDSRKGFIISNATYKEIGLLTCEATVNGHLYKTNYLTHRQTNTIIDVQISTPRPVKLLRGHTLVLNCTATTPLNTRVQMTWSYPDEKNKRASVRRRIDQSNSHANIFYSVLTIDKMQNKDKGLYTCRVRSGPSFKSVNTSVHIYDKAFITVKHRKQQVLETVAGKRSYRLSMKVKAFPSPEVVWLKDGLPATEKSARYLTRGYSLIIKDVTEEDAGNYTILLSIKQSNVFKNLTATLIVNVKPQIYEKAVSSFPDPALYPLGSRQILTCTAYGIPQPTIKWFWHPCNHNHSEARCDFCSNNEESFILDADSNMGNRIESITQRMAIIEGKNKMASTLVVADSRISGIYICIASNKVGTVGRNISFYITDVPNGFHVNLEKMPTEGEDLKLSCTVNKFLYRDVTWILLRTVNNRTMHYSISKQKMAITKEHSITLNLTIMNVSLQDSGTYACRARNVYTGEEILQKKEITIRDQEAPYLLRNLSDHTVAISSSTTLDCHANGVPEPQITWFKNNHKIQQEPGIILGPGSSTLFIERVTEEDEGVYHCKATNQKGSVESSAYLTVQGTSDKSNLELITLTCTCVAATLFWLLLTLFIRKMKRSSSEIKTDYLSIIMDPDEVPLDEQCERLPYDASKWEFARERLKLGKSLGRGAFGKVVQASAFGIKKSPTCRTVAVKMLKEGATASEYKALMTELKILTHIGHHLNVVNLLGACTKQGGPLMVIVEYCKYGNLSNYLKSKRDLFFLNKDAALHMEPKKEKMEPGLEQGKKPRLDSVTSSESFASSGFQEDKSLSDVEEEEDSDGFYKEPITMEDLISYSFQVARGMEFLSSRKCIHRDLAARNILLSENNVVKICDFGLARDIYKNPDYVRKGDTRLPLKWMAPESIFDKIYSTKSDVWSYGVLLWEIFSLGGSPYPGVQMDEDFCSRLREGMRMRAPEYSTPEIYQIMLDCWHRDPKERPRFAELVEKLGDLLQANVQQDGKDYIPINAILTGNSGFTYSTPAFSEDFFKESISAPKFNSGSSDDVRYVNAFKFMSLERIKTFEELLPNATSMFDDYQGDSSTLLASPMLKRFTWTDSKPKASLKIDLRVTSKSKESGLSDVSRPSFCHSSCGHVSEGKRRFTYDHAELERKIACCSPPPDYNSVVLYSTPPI

For the first assay, the target named is Substance-P receptor (Homo sapiens, UniProt P25103). Note: in other assays of this panel Not Active means under 50% inhibition at 10 µM.
Substance-P receptor, sequence (P25103 whole entry): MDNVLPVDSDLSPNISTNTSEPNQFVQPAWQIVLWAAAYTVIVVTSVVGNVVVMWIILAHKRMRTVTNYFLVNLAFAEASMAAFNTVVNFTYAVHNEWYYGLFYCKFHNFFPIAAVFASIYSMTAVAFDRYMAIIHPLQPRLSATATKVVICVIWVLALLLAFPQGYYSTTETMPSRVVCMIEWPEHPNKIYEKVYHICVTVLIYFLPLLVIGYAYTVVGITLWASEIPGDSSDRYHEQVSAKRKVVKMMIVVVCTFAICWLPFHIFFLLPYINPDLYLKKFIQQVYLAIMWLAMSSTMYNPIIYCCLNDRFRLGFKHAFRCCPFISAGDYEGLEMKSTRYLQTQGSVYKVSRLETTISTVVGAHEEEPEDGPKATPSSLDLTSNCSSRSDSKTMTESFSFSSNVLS
Experiment: not given
In kind it is cell membranes, CHO, Membrane. The conditions noted are these: cho.
Consider `CCN(CC)CCNC(=O)c1cc(S(C)(=O)=O)ccc1OC` [TIAPRIDE], for which the IC50 result was “Not Active”.

In the case of `Clc1ccccc1CN1CCc2sccc2C1` [TICLOPIDINE], the IC50 result is recorded as “Not Active”.

For the molecule `NC1CCN(c2nc3c(cc2F)c(=O)c(C(=O)O)cn3-c2ccc(F)cc2F)C1` (configuration not stated) [TOSUFLOXACIN], the IC50 result is “Not Active”.

Take `O=C(Nc1ccc(Br)cc1)c1cc(Br)cc(Br)c1O` [TRIBROMSALAN]: the IC50 result is recorded as “Not Active”.

With `CC(c1cc2ccccc2s1)N(O)C(N)=O` (configuration not stated) [ZILEUTON], the IC50 result was “Not Active”.

On to MANGANESE CHLORIDE ANHYDROUS, for which the IC50 result was “Not Active” and the Ki entry is listed as “Not Active”.

Turning to SODIUM ORTHOVANAD, the IC50 result is “Not Active” and the Ki entry is on record as “Not Active”.

The next assay has as its target Vascular endothelial growth factor receptor 1 (Homo sapiens, UniProt P17948). Put plainly: biochemical. In kind it is cell-based, HUVEC. To be noted: huvec. Note: in other assays of this panel Not Active means under 50% inhibition at 10 µM.
`CCN(CC)CCNC(=O)c1cc(S(C)(=O)=O)ccc1OC` [TIAPRIDE]: the IC50 entry is given as “Not Active”.

Turning to `Clc1ccccc1CN1CCc2sccc2C1` [TICLOPIDINE], the IC50 result is “Not Active”.

Regarding `NC1CCN(c2nc3c(cc2F)c(=O)c(C(=O)O)cn3-c2ccc(F)cc2F)C1` (configuration not stated) [TOSUFLOXACIN], the IC50 entry is “Not Active”.

For `O=C(Nc1ccc(Br)cc1)c1cc(Br)cc(Br)c1O` [TRIBROMSALAN], the IC50 entry is on record as “Not Active”.

Consider `CC(c1cc2ccccc2s1)N(O)C(N)=O` (configuration not stated) [ZILEUTON], for which the IC50 entry was “Not Active”.

On to MANGANESE CHLORIDE ANHYDROUS, for which the IC50 result is “Not Active” and the Ki entry was “Not Active”.

Turning to SODIUM ORTHOVANAD, the IC50 result is on record as “Not Active” and the Ki entry is recorded as “Not Active”.

A further assay concerns the target T1, Endothelin-1 receptor (Homo sapiens, UniProt P25101). Note: in other assays of this panel Not Active means under 50% inhibition at 10 µM.
T1 sequence (P25101 whole entry): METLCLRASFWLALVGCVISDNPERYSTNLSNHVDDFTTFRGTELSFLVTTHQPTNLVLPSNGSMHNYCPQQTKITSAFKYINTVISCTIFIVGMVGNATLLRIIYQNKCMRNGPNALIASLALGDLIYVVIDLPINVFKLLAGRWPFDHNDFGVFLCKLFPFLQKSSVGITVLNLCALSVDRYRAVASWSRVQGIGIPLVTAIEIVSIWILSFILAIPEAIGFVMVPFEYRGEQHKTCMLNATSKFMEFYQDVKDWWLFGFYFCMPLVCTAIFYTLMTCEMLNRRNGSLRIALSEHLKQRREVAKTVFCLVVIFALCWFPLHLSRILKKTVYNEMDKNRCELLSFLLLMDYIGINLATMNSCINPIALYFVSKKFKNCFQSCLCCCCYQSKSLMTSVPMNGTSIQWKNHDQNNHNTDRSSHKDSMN
Experiment: not given
In kind it is cell membranes, Membrane. The conditions noted are these: cho-k1.
`CCN(CC)CCNC(=O)c1cc(S(C)(=O)=O)ccc1OC` [TIAPRIDE]: the IC50 entry is “Not Active”.

For the molecule `Clc1ccccc1CN1CCc2sccc2C1` [TICLOPIDINE], the IC50 result is recorded as “Not Active”.

For the molecule `NC1CCN(c2nc3c(cc2F)c(=O)c(C(=O)O)cn3-c2ccc(F)cc2F)C1` (configuration not stated) [TOSUFLOXACIN], the IC50 entry is reported as “Not Active”.

Turning to `O=C(Nc1ccc(Br)cc1)c1cc(Br)cc(Br)c1O` [TRIBROMSALAN], the IC50 result is “Not Active”.

As for `CC(c1cc2ccccc2s1)N(O)C(N)=O` (configuration not stated) [ZILEUTON], the IC50 result is recorded as “Not Active”.

In the case of MANGANESE CHLORIDE ANHYDROUS, the IC50 entry is on record as “Not Active” and the Ki entry was “Not Active”.

Consider SODIUM ORTHOVANAD, for which the IC50 entry is reported as “Not Active” and the Ki entry is listed as “Not Active”.

A further assay deals with T2, Neutrophil elastase (Homo sapiens, UniProt P08246).
T2 sequence (P08246 whole entry): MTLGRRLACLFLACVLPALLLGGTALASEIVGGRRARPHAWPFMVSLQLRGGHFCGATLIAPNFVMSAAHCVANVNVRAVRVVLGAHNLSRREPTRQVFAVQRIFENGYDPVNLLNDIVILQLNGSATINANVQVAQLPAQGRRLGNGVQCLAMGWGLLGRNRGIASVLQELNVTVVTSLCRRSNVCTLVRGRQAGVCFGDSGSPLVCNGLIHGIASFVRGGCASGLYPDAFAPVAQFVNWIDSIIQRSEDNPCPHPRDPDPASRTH
Experiment: not given
In kind it is tissue-based.
Details: not given
Turning to `CCN(CC)CCNC(=O)c1cc(S(C)(=O)=O)ccc1OC` [TIAPRIDE], the IC50 entry is given as “Not Active”.

As for `Clc1ccccc1CN1CCc2sccc2C1` [TICLOPIDINE], the IC50 result is recorded as “Not Active”.

Take `NC1CCN(c2nc3c(cc2F)c(=O)c(C(=O)O)cn3-c2ccc(F)cc2F)C1` (configuration not stated) [TOSUFLOXACIN]: the IC50 entry was “Not Active”.

In the case of `O=C(Nc1ccc(Br)cc1)c1cc(Br)cc(Br)c1O` [TRIBROMSALAN], the IC50 entry is “Not Active”.

For the molecule `CC(c1cc2ccccc2s1)N(O)C(N)=O` (configuration not stated) [ZILEUTON], the IC50 result is “Not Active”.

With MANGANESE CHLORIDE ANHYDROUS, the IC50 result was “Not Active” and the Ki entry is “Not Active”.

For the molecule SODIUM ORTHOVANAD, the IC50 result is recorded as “Not Active” and the Ki entry is recorded as “Not Active”.

The target of a further assay is Protein kinase C alpha type (Homo sapiens, UniProt P17252).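 Note: inhibition of PKCalpha kinase activity measured in an enzyme assay with histone as the phosphorylation substrate; in other assays of this panel Not Active means under 50% inhibition at 10 µM.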
Experiment: not given
The assay is classed as cell-based. The conditions noted are these: sf9.
With `CCN(CC)CCNC(=O)c1cc(S(C)(=O)=O)ccc1OC` [TIAPRIDE], the IC50 result is “Not Active”.

`Clc1ccccc1CN1CCc2sccc2C1` [TICLOPIDINE]: the IC50 entry is reported as “Not Active”.

For the molecule `NC1CCN(c2nc3c(cc2F)c(=O)c(C(=O)O)cn3-c2ccc(F)cc2F)C1` (configuration not stated) [TOSUFLOXACIN], the IC50 entry is listed as “Not Active”.

Regarding `O=C(Nc1ccc(Br)cc1)c1cc(Br)cc(Br)c1O` [TRIBROMSALAN], the IC50 result was “Not Active”.

For the molecule `CC(c1cc2ccccc2s1)N(O)C(N)=O` (configuration not stated) [ZILEUTON], the IC50 entry is reported as “Not Active”.

With MANGANESE CHLORIDE ANHYDROUS, the IC50 result is given as “Not Active” and the Ki entry is on record as “Not Active”.

For the molecule SODIUM ORTHOVANAD, the IC50 entry is reported as “Not Active” and the Ki entry is “Not Active”.

Tested on in another assay: not listed separately
Put plainly: DRUGMATRIX: Purinergic P2X radioligand binding (ligand: [3H] alpha, beta-Methylene-ATP). In kind it is cell membranes, Oryctolagus cuniculus, New Zealand albino, Urinary bladder, Membrane. To be noted: Not Active = under 50% inhibition at 10 µM.
`CCN(CC)CCNC(=O)c1cc(S(C)(=O)=O)ccc1OC` [TIAPRIDE]: the IC50 result is “Not Active” and the Ki entry is “Not Active”.

With `Clc1ccccc1CN1CCc2sccc2C1` [TICLOPIDINE], the IC50 result was “Not Active” and the Ki entry is “Not Active”.

Regarding `NC1CCN(c2nc3c(cc2F)c(=O)c(C(=O)O)cn3-c2ccc(F)cc2F)C1` (configuration not stated) [TOSUFLOXACIN], the IC50 entry was “Not Active” and the Ki entry is “Not Active”.

Turning to `O=C(Nc1ccc(Br)cc1)c1cc(Br)cc(Br)c1O` [TRIBROMSALAN], the IC50 entry was “Not Active” and the Ki result was “Not Active”.

`CC(c1cc2ccccc2s1)N(O)C(N)=O` (configuration not stated) [ZILEUTON]: the IC50 result is recorded as “Not Active” and the Ki result is listed as “Not Active”.

Regarding MANGANESE CHLORIDE ANHYDROUS, the IC50 result was “Not Active” and the Ki entry is reported as “Not Active”.

As to SODIUM ORTHOVANAD, the IC50 result is “Not Active” and the Ki result is recorded as “Not Active”.

The target in the next assay is 5-hydroxytryptamine receptor 1B (Rattus norvegicus, UniProt P28564). Note: in other assays of this panel Not Active means under 50% inhibition at 10 µM.
5-hydroxytryptamine receptor 1B, sequence (P28564 whole entry): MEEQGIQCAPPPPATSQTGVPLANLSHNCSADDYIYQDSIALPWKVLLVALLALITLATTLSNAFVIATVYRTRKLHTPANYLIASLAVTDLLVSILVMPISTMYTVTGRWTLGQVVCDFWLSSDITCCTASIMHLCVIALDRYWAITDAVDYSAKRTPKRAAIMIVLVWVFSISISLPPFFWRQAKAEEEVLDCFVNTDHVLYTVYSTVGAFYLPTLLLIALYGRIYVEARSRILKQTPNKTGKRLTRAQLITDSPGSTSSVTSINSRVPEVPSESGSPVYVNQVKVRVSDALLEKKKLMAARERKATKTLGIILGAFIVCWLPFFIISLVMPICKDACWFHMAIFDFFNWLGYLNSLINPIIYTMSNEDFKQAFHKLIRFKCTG
Experiment: not given
In kind it is cell membranes, Wistar, Cerebral cortex, Membrane.
Details: not given
On to `CCN(CC)CCNC(=O)c1cc(S(C)(=O)=O)ccc1OC` [TIAPRIDE], for which the IC50 entry is listed as “Not Active”.

Regarding `Clc1ccccc1CN1CCc2sccc2C1` [TICLOPIDINE], the IC50 result is “Not Active”.

Regarding `NC1CCN(c2nc3c(cc2F)c(=O)c(C(=O)O)cn3-c2ccc(F)cc2F)C1` (configuration not stated) [TOSUFLOXACIN], the IC50 entry is reported as “Not Active”.

On to `O=C(Nc1ccc(Br)cc1)c1cc(Br)cc(Br)c1O` [TRIBROMSALAN], for which the IC50 result is recorded as “Not Active”.

As to `CC(c1cc2ccccc2s1)N(O)C(N)=O` (configuration not stated) [ZILEUTON], the IC50 entry was “Not Active”.

For MANGANESE CHLORIDE ANHYDROUS, the IC50 entry is on record as “Not Active” and the Ki entry is “Not Active”.

Regarding SODIUM ORTHOVANAD, the IC50 result is on record as “Not Active” and the Ki entry is reported as “Not Active”.

The target in the next assay is Adenosine receptor A2a (Homo sapiens, UniProt P29274). Put plainly: DRUGMATRIX: Adenosine A2A radioligand binding (ligand: […]). In kind it is cell membranes, HEK293, Membrane. The conditions noted are these: hek293; Not Active = under 50% inhibition at 10 µM.
Adenosine receptor A2a, sequence (P29274 whole entry): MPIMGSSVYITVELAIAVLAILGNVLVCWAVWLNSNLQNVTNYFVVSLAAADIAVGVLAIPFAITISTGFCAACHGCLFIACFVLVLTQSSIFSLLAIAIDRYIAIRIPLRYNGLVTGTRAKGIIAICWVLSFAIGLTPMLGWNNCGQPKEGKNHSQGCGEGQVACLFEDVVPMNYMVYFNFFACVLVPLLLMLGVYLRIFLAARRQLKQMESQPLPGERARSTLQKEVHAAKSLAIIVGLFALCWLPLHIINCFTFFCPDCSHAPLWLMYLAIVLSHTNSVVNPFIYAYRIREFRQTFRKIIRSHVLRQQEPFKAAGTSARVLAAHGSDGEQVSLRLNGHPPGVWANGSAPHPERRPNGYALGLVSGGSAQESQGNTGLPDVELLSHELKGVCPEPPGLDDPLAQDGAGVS
Turning to `CCN(CC)CCNC(=O)c1cc(S(C)(=O)=O)ccc1OC` [TIAPRIDE], the IC50 result is given as “Not Active”.

Regarding `Clc1ccccc1CN1CCc2sccc2C1` [TICLOPIDINE], the IC50 entry was “Not Active”.

For the molecule `NC1CCN(c2nc3c(cc2F)c(=O)c(C(=O)O)cn3-c2ccc(F)cc2F)C1` (configuration not stated) [TOSUFLOXACIN], the IC50 result is “Not Active”.

As to `O=C(Nc1ccc(Br)cc1)c1cc(Br)cc(Br)c1O` [TRIBROMSALAN], the IC50 entry is recorded as “Not Active”.

As for `CC(c1cc2ccccc2s1)N(O)C(N)=O` (configuration not stated) [ZILEUTON], the IC50 entry is “Not Active”.

MANGANESE CHLORIDE ANHYDROUS: the IC50 entry is recorded as “Not Active” and the Ki entry is on record as “Not Active”.

Turning to SODIUM ORTHOVANAD, the IC50 result is “Not Active” and the Ki result is “Not Active”.
